Test results from patent US8633154B2, “Cyclodepsipeptides with antineoplastic activity and methods of using to inhibit cancer and microbial growth” (Arizona Board of Regents, a body corporate of the State of …, priority 2007, dated 2014).
≈ marks a conversion by molar mass, not a printed value.

Assays:
Assay type in all cases: cell-based
BXPC-3 = experiment: Human cancer cell line growth inhibition, BXPC-3
MCF-7 = experiment: Human cancer cell line growth inhibition, MCF-7
SF268 = experiment: Human cancer cell line growth inhibition, SF268
NCI-H460 = experiment: Human cancer cell line growth inhibition, NCI-H460
KM20L2 = experiment: Human cancer cell line growth inhibition, KM20L2
DU-145 = experiment: Human cancer cell line growth inhibition, DU-145
[1] = test system: Micrococcus luteus Presque Isle 456; experiment: Broth microdilution susceptibility assay, Micrococcus luteus
Description: (§1) Cyclodepsipeptides 1 and 2 were screened against the bacteria Stenotrophomonas maltophilia ATCC 13637, Micrococcus luteus Presque Isle 456, Staphylococcus aureus ATCC 29213, Escherichia coli ATCC 25922, Enterobacter cloacae ATCC 13047, Enterococcus faecalis ATCC 29212, Streptococcus pneumoniae ATCC 6303, Neisseria gonorrhoeae ATCC 49226, and the fungi Candida albicans ATCC 90028 and Cryptococcus neoformans ATCC 90112, according to established broth microdilution susceptibility assays.^15,16 Owing to a paucity of material, compound 2 was tested against S. maltophilia, M. luteus, S. aureus, E. coli and C. albicans only. Compounds were reconstituted in a small volume of sterile DMSO and diluted in the appropriate media immediately prior to susceptibility experiments. The minimum inhibitory concentration was defined as the lowest concentration of compound that inhibited all visible growth of the test organism (optically clear). Assays were repeated on separate days.

[2] = test system: Cryptococcus neoformans ATCC 90112; experiment: Broth microdilution susceptibility assay, Cryptococcus neoformans
Description: as §1

[3] = test system: Enterococcus faecalis ATCC 29212; experiment: Broth microdilution susceptibility assay, Enterococcus faecalis; details: ATCC29212, read-out: minimum inhibitory concentration [MIC]
Description: as §1

| SMILES | Inhibition of Human Cancer Cell Lines (GI50) BXPC-3 (BXPC-3) [ng/mL] | Inhibition of Human Cancer Cell Lines (GI50) MCF-7 (MCF-7) [ng/mL] | Inhibition of Human Cancer Cell Lines (GI50) SF268 (SF268) [ng/mL] | Inhibition of Human Cancer Cell Lines (GI50) NCI-H460 (NCI-H460) [ng/mL] | Inhibition of Human Cancer Cell Lines (GI50) KM20L2 (KM20L2) [ng/mL] | Inhibition of Human Cancer Cell Lines (GI50) DU-145 (DU-145) [ng/mL] | minimum inhibitory concentration [MIC] [1] [ng/mL] | GI50 (BXPC-3; Homo sapiens, read-out: Inhibition of Human Cancer Cell Lines (GI50) BXPC-3) [ng/mL] | GI50 (MCF-7; Homo sapiens, MCF7, read-out: Inhibition of Human Cancer Cell Lines (GI50) MCF-7) [ng/mL] | GI50 (SF268; Homo sapiens, SF-268, read-out: Inhibition of Human Cancer Cell Lines (GI50) SF268) [ng/mL] | GI50 (NCI-H460; Homo sapiens, read-out: Inhibition of Human Cancer Cell Lines (GI50) NCI-H460) [ng/mL] | GI50 (KM20L2; Homo sapiens, KM-20L2, read-out: Inhibition of Human Cancer Cell Lines (GI50) KM20L2) [ng/mL] | GI50 (DU-145; Homo sapiens, read-out: Inhibition of Human Cancer Cell Lines (GI50) DU-145) [ng/mL] | MIC ([2]; ATCC90112, read-out: minimum inhibitory concentration [MIC]) [ng/mL] | MIC [3] [ng/mL] | minimum inhibitory concentration [MIC] ([2]; broth microdilution) [ng/mL] |
| --- | --- | --- | --- | --- | --- | --- | --- | --- | --- | --- | --- | --- | --- | --- | --- | --- |
| CC[C@H](C)[C@@H]1OC(=O)[C@H](C)OC(=O)[C@@H](NC(=O)c2cccc(NC=O)c2O)[C@@H](C)OC(=O)[C@H](C(C)C)OC(=O)C(C)(C)C(=O)[C@H](CC(C)C)NC1=O [Cyclodepsipeptide 2] | 1200 | 0.62 | 16 | 0.63 | 0.58 | <0.1 | 64000 (≈ 87200 nM) | – | – | – | – | – | – | – | – | – |
| CCC(C)[C@@H]1OC(=O)[C@H](C)OC(=O)[C@@H](NC(=O)c2cccc(N)c2O)[C@@H](C)OC(=O)[C@H](CC(C)C)OC(=O)C(C)(C)C(=O)[C@H](CC(C)C)NC1=O (stereo partly shown) [Cyclodepsipeptide 3, Kitastatin 1] | – | – | – | – | – | – | – | 6.6 (≈ 9.17 nM) | 4 (≈ 5.56 nM) | 3.5 (≈ 4.86 nM) | < 1 | 2.4 (≈ 3.33 nM) | 2.6 (≈ 3.61 nM) | 64000 (≈ 88900 nM) | 64000 (≈ 88900 nM) | – |
| CCC(C)[C@@H]1OC(=O)[C@H](C)OC(=O)[C@@H](NC(=O)c2cccc(NC=O)c2O)[C@@H](C)OC(=O)[C@H](CC(C)C)OC(=O)C(C)(C)C(=O)[C@H](CC(C)C)NC1=O (stereo partly shown) [Cyclodepsipeptide 1, respirantin] | 470 | 0.6 | 1.6 | 0.6 | 0.6 | 0.18 | – | – | – | – | – | – | – | – | – | 2000 (≈ 2670 nM) |
